# Data: PMC8348161, “Cardiolipin-Containing Lipid Membranes Attract the Bacterial Cell Division Protein DivIVA” (International Journal of Molecular Sciences, 2021)
# Molecular target: T1, DivIVACd (Clostridioides difficile, UniProt Q182V3)
# T1 construct: gene CD630_26190; full length, untagged (pET-26b) or His-SUMO tag cut by Ulp1 without extra residues; E. coli BL21(DE3)pLysS; forms large polymers
# T1 sequence (Q182V3 1-175): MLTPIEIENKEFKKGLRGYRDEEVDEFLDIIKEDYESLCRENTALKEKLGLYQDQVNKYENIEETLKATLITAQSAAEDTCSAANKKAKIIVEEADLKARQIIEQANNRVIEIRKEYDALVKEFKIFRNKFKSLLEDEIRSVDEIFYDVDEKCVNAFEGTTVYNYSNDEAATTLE
# Test: QCM-D, protein titrated over supported lipid bilayer, Hill fit
# Type: binding
# Settings: 5% CL in mixed bilayer (65% DOPC, 30% DOPG, 5% TOCL); protein concentration scale; Hill coefficient 1.0; pH 7.4, 250 mM KCl, 5 mM MgCl2, 23 °C
smiles,measurement,value
"CCCCCCCC/C=C\CCCCCCCC(=O)OC[C@H](COP(=O)(O)OCC(O)COP(=O)(O)OC[C@@H](COC(=O)CCCCCCC/C=C\CCCCCCCC)OC(=O)CCCCCCC/C=C\CCCCCCCC)OC(=O)CCCCCCC/C=C\CCCCCCCC (stereo partly shown) [TOCL, 1,3-bis[1,2-dioleoyl-sn-glycero-3-phospho]-glycerol]",Kd,1300 nM
